Assay results taken from patent US20260216347A1, “Substituted Imidazo-Based Compounds as Ligand Directed Degraders of IRAK3” (Celgene Corporation, priority 2022, published 2026).
Blank lines part the entries; values can stand above or below the compound they belong to.

Target: T1, IRAK3 (Homo sapiens, UniProt Q9Y616)
T1 construct: IRAK Endogenous HTRF Degradation Assay; endogenous in cells
T1 sequence (Q9Y616 1-596): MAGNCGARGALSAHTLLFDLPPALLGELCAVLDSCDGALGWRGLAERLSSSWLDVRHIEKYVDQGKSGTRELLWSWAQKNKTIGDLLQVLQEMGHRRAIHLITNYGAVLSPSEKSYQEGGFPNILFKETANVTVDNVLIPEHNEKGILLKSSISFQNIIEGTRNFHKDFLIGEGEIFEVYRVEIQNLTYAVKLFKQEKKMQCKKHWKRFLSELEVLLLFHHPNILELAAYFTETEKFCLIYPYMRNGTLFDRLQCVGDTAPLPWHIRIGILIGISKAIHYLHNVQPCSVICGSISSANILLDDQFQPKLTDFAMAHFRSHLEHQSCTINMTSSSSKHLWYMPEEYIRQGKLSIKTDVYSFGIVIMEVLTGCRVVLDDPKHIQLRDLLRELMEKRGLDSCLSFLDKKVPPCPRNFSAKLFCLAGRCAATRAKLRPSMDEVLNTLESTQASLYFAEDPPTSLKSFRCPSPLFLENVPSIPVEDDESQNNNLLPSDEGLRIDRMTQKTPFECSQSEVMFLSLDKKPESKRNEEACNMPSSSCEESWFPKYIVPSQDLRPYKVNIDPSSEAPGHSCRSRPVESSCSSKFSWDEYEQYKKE
Test: IRAK3 biochemical binding assay (LanthaScreen Eu Kinase Binding, TR-FRET)
Description: Example B3. IRAK3 Biochemical Binding Assay
The LanthaScreen® Eu Kinase Binding assay was performed as described by the vendor (ThermoFisher Scientific Waltham, MA). Briefly, 100× solutions of compound were prepared in DMSO via serial dilution of the 10 mM stock solution in a 384-well reagent plate using 3-fold intervals to achieve final concentrations. 1 μL of the compound dilution series were added to the corresponding wells of a 384-well reagent plate containing 32.3 μL of 1× buffer (50 mM HEPES pH 7.4, […], 1 mM EGTA, 0.01% Brij-35). 5 μL of the buffer diluted compounds were transferred to the corresponding wells of a 384-well assay plate. 5 μL of 3× tracer was transferred to each well of the assay plate for a final tracer concentration of 10 nM. Finally, 5 μL of the 3×Eu-Anti-GST and IRAK3 mix was transferred to each well for a final concentration of 2 nM and 10 nM respectively. Reactions were allowed to incubate for 1 hour at room temperature. TR-FRET signal of the interaction (λex340/λem 665/λem 615) was read at room temperature with a delay time of 100 ρs and an integration time of 200 ρs using an Envision plate reader. Background corrected emission signal ratios at each compound concentration were used to calculate percentage of inhibition (% Inhibition). Plots of % Inhibition versus inhibitor concentrations were fit according to a dose-response equation (Eq. 1) to generate IC50 and Hill slope values using Dotmatics software (Dotmatics, Bishops Stortford, Hertfordshire, England).
Using these assays, IC50, Dmax, EC50, and DC50 values of the following compounds were determined. Dmax is defined as the maximum percent degradation achieved and DC50 is the concentration at which 50% degradation is achieved.

Structure (SMILES): Cc1cc(-c2cnc(Nc3cnn([C@H]4CC[C@H](CCN5CCC(c6ccc(C7CCC(=O)NC7=O)cc6)CC5)CC4)c3)c3nccn23)c(F)cc1F (stereo partly drawn) [Compound 95, 3-(4-(1-(2-((trans)-4-(4-((5-(2,4-difluoro-5-methylphenyl)imidazo[1,2-a]pyrazin-8-yl)amino)-1H-pyrazol-1-yl)cyclohexyl)ethyl)piperidin-4-yl)phenyl) piperidine-2,6-dione]
IC50: 15 nM

Structure (SMILES): Cc1cc(-c2cnc(Nc3cnn([C@H]4C[C@@H](CCN5CCN(c6ccc(C7CCC(=O)NC7=O)cc6)CC5)C4)c3)c3nccn23)c(F)cc1F (stereo partly drawn) [Compound 96, 3-(4-(4-(2-((cis)-3-(4-((5-(2,4-difluoro-5-methylphenyl)imidazo[1,2-a]pyrazin-8-yl)amino)-1H-pyrazol-1-yl)cyclobutyl)ethyl)piperazin-1-yl)phenyl)piperidine-2,6-dione]
IC50: 0.22 nM

Structure (SMILES): Cc1cc(-c2cnc(Nc3cnn(C4CCN(CCN5CC6(C5)CN(c5ccc(C7CCC(=O)NC7=O)cc5)C6)CC4)c3)c3nccn23)c(F)cc1F (stereo not drawn) [Compound 97, 3-(4-(6-(2-(4-(4-((5-(2,4-difluoro-5-methylphenyl)imdazo [1,2-a]pyrazin-8-yl)amino)-1H-pyrazol-1-yl)piperidin-1-yl)ethyl)-2,6-diazaspiro[3.3]heptan-2-yl)phenyl) piperidine-2,6-dione]
IC50: 1.3 nM

Structure (SMILES): Cc1cc(-c2cnc(Nc3cnn([C@H]4C[C@H](CN5CCN(c6ccc(C7CCC(=O)NC7=O)cc6)CC5)C4)c3)c3nccn23)c(F)cc1F (stereo partly drawn) [Compound 99]
IC50: 0.44 nM

Structure (SMILES): O=C1CCC(c2ccc(N3CCN(CC[C@H]4CC[C@H](n5cc(Nc6ncc(C78CCCC7C8)n7ccnc67)cn5)CC4)CC3)cc2)C(=O)N1 (stereo partly drawn) [Compound 100]
IC50: 4 nM

Structure (SMILES): Cc1cc(-c2cnc(Nc3cnn([C@H]4CC[C@@H](CCN5CC6(C5)CN(c5ccc(C7CCC(=O)NC7=O)cc5)C6)CC4)c3)c3nccn23)c(F)cc1F (stereo partly drawn) [Compound 101]
IC50: 7.6 nM

Structure (SMILES): Cc1cc(-c2cnc(Nc3cnn(C4CCN(CCN5CCN(c6ccc(-n7ccc(=O)[nH]c7=O)cc6)CC5)CC4)c3)c3nccn23)c(F)cc1F [Compound 102, 1-(4-(4-(2-(4-(4-((5-(2,4-difluoro-5-methylphenyl)imdazo [1,2-a]pyrazin-8-yl)amino)-1H-pyrazol-1-yl)piperidin-1-yl)ethyl)piperazin-1-yl)phenyl)pyrimidine-2,4(1H,3H)-dione]
IC50: 0.8 nM

Structure (SMILES): Cc1cc(-c2ccc(Nc3cnn([C@H]4CC[C@@H](CCN5CCN(c6ccc(C7CCC(=O)NC7=O)cc6)CC5)CC4)c3)c3nccn23)c(F)cc1F (stereo partly drawn) [Compound 103]
IC50: 2 nM

Structure (SMILES): Cc1cc(-c2cnc(Nc3cnn([C@H]4CC[C@H](CCN5CC6(C5)CN(c5ccc(C7CCC(=O)NC7=O)cc5)C6)CC4)c3)c3nccn23)c(F)cc1F (stereo partly drawn) [Compound 104]
IC50: 0.3 nM

Structure (SMILES): Cc1cc(-c2cnc(Nc3cnn([C@H]4CC[C@H](CCN5CCN(c6ccc7c(C8CCC(=O)NC8=O)nn(C)c7c6)CC5)CC4)c3)c3nccn23)c(F)cc1F (stereo partly drawn) [Compound 105, 3-(6-(4-(2-((trans)-4-(4-((5-(2,4-difluoro-5-methylphenyl)imidazo[1,2-a]pyrazin-8-yl)amino)-1H-pyrazol-1-yl)cyclohexyl)ethyl)piperazin-1-yl)-1-methyl-1H-indazol-3-yl)piperidine-2,6-dione]
IC50: 0.18 nM

Structure (SMILES): Cc1cc(-c2ccc(Nc3cnn([C@H]4CC[C@H](CCN5CCN(c6ccc(C7CCC(=O)NC7=O)cc6)CC5)CC4)c3)c3nccn23)c(F)cc1F (stereo partly drawn) [Compound 108]
IC50: 2.6 nM

Structure (SMILES): Cc1cc(-c2cnc(Nc3cnn(C4CCN(CCN5CCC(n6cc(C7CCC(=O)NC7=O)cn6)CC5)CC4)c3)c3nccn23)c(F)cc1F (stereo not drawn) [Compound 109, 3-(1-(1-(2-(4-(4-((5-(2,4-difluoro-5-methylphenyl)imdazo [1,2-a]pyrazin-8-yl)amino)-1H-pyrazol-1-yl)piperidin-1-yl)ethyl)piperidin-4-yl)-1H-pyrazol-4-yl)piperidine-2,6-dione]
IC50: 0.26 nM

Structure (SMILES): Cc1cc(-c2cnc(Nc3cnn(C4CCN(CCN5CCN(c6ccc(-n7cc(F)c(=O)[nH]c7=O)cc6)CC5)CC4)c3)c3nccn23)c(F)cc1F [Compound 110, 1-(4-(4-(2-(4-(4-((5-(2,4-difluoro-5-methylphenyl)imdazo [1,2-a]pyrazin-8-yl)amino)-1H-pyrazol-1-yl)piperidin-1-yl)ethyl)piperazin-1-yl)phenyl)-5-fluoropyrimidine-2,4(1H,3H)-dione]
IC50: 0.86 nM

Structure (SMILES): Cc1cc(-c2cnc(Nc3cnn(C4CCN(CCN5CCC(n6cc(N7CCC(=O)NC7=O)cn6)CC5)CC4)c3)c3nccn23)c(F)cc1F [Compound 116, 1-(1-(1-(2-(4-(4-((5-(2,4-difluoro-5-methylphenyl)imdazo [1,2-a]pyrazin-8-yl)amino)-1H-pyrazol-1-yl)piperidin-1-yl)ethyl)piperidin-4-yl)-1H-pyrazol-4-yl) dihydropyrimidine-2,4(1H,3H)-dione]
IC50: 0.12 nM

The remaining lines, values ahead:

IC50: 380 nM
Structure (SMILES): CS(=O)(=O)c1cccc(-c2cnc(Nc3cnn(C4CCN(CCN5CCN(c6ccc(C7CCC(=O)NC7=O)cc6)CC5)CC4)c3)c3nccn23)c1 (stereo not drawn) [Compound 86, 3-(4-(4-(2-(4-(4-((5-(3-(methylsulfonyl)phenyl)imidazo[1,2-a]pyrazin-8-yl)amino)-1H-pyrazol-1-yl)piperidin-1-yl)ethyl)piperazin-1-yl)phenyl) piperidine-2,6-dione]

IC50: 4 nM
Structure (SMILES): COc1ccc(-c2cnc(Nc3cnn(C4CCN(CCN5CCN(c6ccc(C7CCC(=O)NC7=O)cc6)CC5)CC4)c3)c3nccn23)cc1 (stereo not drawn) [Compound 87, 3-(4-(4-(2-(4-(4-((5-(4-methoxyphenyl)imidazo[1,2-a]pyrazin-8-yl)amino)-1H-pyrazol-1-yl)piperidin-1-yl)ethyl)piperazin-1-yl)phenyl) piperidine-2,6-dione]

IC50: 16 nM
Structure (SMILES): O=C1CCC(c2ccc(N3CCN(CCN4CCC(n5cc(Nc6ncc(-c7ccccc7)n7ccnc67)cn5)CC4)CC3)cc2)C(=O)N1 (stereo not drawn) [Compound 88, 3-(4-(4-(2-(4-(4-((5-phenylimidazo[1,2-a]pyrazin-8-yl)amino)-1H-pyrazol-1-yl)piperidin-1-yl)ethyl)piperazin-1-yl)phenyl) piperidine-2,6-dione]

IC50: 0.08 nM
Structure (SMILES): CN1CCOc2cc(F)c(-c3cnc(Nc4cnn(C5CCN(CCN6CCN(c7ccc(C8CCC(=O)NC8=O)cc7)CC6)CC5)c4)c4nccn34)cc21 (stereo not drawn) [Compound 98, 3-(4-(4-(2-(4-(4-((5-(7-fluoro-4-methyl-3,4-dihydro-2H-benzo[b][1,4]oxazin-6-yl)imidazo[1,2-a]pyrazin-8-yl)amino)-1H-pyrazol-1-yl)piperidin-1-yl)ethyl)piperazin-1-yl)phenyl) piperidine-2,6-dione]

IC50: 3.2 nM
Structure (SMILES): Cn1nc(C2CCC(=O)NC2=O)c2cccc(N3CCN(CCN4CCC(n5cc(Nc6ncc(C7CC7)n7ccnc67)cn5)CC4)CC3)c21 (stereo not drawn) [Compound 113, 3-(7-(4-(2-(4-(4-((5-cyclopropylimidazo[1,2-a]pyrazin-8-yl)amino)-1H-pyrazol-1-yl)piperidin-1-yl)ethyl)piperazin-1-yl)-1-methyl-1H-indazol-3-yl)piperidine-2,6-dione]

IC50: 0.92 nM
Structure (SMILES): O=C1CCC(c2ccc(N3CCN(CCN4CCC(n5cc(Nc6ncc(-c7cnn8c7CCCC8)n7ccnc67)cn5)CC4)CC3)cc2)C(=O)N1 (stereo not drawn) [Compound 114, 3-(4-(4-(2-(4-(4-((5-(4,5,6,7-tetrahydropyrazolo[1,5-a]pyridin-3-yl)imidazo[1,2-a]pyrazin-8-y1)amino)-1H-pyrazol-1-yl)piperidin-1-yl)ethyl)piperazin-1-y1)phenyl)piperidine-2,6-dione]

IC50: 25 nM
Structure (SMILES): Cn1nc(C2CCC(=O)NC2=O)c2ccc(N3CCN(CCN4CCC(n5cc(Nc6ncc(C7CC7)n7ccnc67)cn5)CC4)CC3)cc21 (stereo not drawn) [Compound 115, 3-(6-(4-(2-(4-(4-((5-cyclopropylimidazo[1,2-a]pyrazin-8-yl)amino)-1H-pyrazol-1-yl)piperidin-1-yl)ethyl)piperazin-1-yl)-1-methyl-1H-indazol-3-yl)piperidine-2,6-dione]
